{
  "source": "patent US20150374712A1",
  "about": "“Combinations of Dopamine D2 Receptor Blockade With Norepinephrine Reuptake Inhibition and with Norepinephrine Alpha 2 Receptor Blockade” (priority 2007, published 2015)",
  "key": {"[1]": {"tested_on": "Syrian golden hamster", "assay": "Chronic alcohol drinking in Syrian golden hamsters (free choice of alcohol and water)", "type": "in vivo, Mesocricetus auratus", "description": "(§1) All animals were given 24 hours/day access to 10-15% alcohol and water in two separate drinking bottles. Groups of animals (n=6-10/group) received daily injections of the specific drug or drug combination or vehicle for up to 4 weeks."}, "[2]": {"tested_on": "alcohol preferring P rat", "assay": "Initiation of alcohol drinking in alcohol-preferring P rats", "type": "in vivo", "description": "as §1"}, "[3]": {"tested_on": "Syrian golden hamster", "details": "vs vehicle, Example 1 (prior art, FIG. 1, Green et al. 2004); cited from earlier work"}},
  "note": "Entries after “also recorded” stand apart in the source; their conditions may differ.",
  "data": [
    {"smiles": "CN1CCN(C2=Nc3cc(Cl)ccc3Nc3ccccc32)CC1", "note": "[clozapine]", "values": [
      {"measurement": "duration of clozapine's effect on alcohol drinking", "setting": "[1]; Syrian golden hamster, chronic clozapine, Example 2, FIG. 2, unpublished data", "result": "at least 1 month"}
    ]},
    {"smiles": "Cc1nc2n(c(=O)c1CCN1CCC(c3noc4cc(F)ccc34)CC1)CCCC2", "note": "[risperidone]", "values": [
      {"measurement": "alcohol drinking (chronic drinking)", "setting": "[1]; hamster, low dose of risperidone, Examples 9-10, FIGS. 9, 10", "result": "only a modest effect on alcohol drinking"},
      {"measurement": "alcohol drinking (initiation of alcohol drinking)", "setting": "[2]; low dose of risperidone, Example 11, FIG. 11", "result": "only a modest effect on alcohol drinking"}
    ]},
    {"smiles": "O=C(CCCN1CCC(O)(c2ccc(Cl)cc2)CC1)c1ccc(F)cc1", "note": "[haloperidol]", "values": [
      {"measurement": "chronic alcohol drinking", "setting": "[3]", "result": "No dose of haloperidol tested had an effect on alcohol drinking; also recorded: very little effect on chronic alcohol drinking"},
      {"measurement": "initiation of alcohol drinking", "setting": "[2]; low-dose haloperidol, Example 7, FIG. 7", "result": "minimal ability to blunt the initiation of alcohol drinking"}
    ]}
  ]
}
